# Data as given in ChEMBL document CHEMBL1124317, “Rationale for the synthesis and preliminary biological evaluation of highly active new antitumor nitrosoureido sugars” (J Med Chem, 1989).
# Tests used:
# [1] = (§1) Lethal dose was evaluated in male mouse; format: toxicity, organism-based; details: in vivo
# [2] = organism: Mus musculus; assay: as §1; format: toxicity, organism-based; details: in vivo
# [3] = test system: Mus musculus; assay: The number of L1210 leukemia mice survived after 30 days with compound injected by a dose of 10 mg/kg intraperitoneally; 8/8; format: functional; details: route intraperitoneal
# [4] = test system: Mus musculus; assay: The number of B16 Melanocarcinoma mice survived after 30 days with compound injected by a dose of 10 mg/kg intraperitoneally; 10/10; format: functional; details: route intraperitoneal
# [5] = test system: Mus musculus; assay: The number of B16 melanocarcinoma mice survived after 60 days with compound in olive oil injected by a dose of 20 mg/kg intraperitoneally; 3/20; format: functional; details: route intraperitoneal
# [6] = test system: Mus musculus; assay: The number of Lewis lung mice survived after 30 days with compound in olive oil injected by a dose of 20 mg/kg intraperitoneally; 20/20; format: functional; details: route intraperitoneal
# [7] = test system: Mus musculus; assay: Anti tumor activity l when treated to mice with B16 Melanocarcinoma with 10 mg/kg dose of compound intraperitoneally was expressed as percent of treated to control (T/C %); format: functional; details: route intraperitoneal
# [8] = test system: Mus musculus; assay: Median survival time of the non surviving mice; treated with 20 mg/kg of compound in olive oil to mice with B16 Melanocarcinoma; 12-47; format: functional
# [9] = Mortality range of the mice with L1210 leukemia treated with 2.5 mg/kg of dose intraperitoneally with no of mice survived/no of mice treated; 0/8; format: functional; details: route intraperitoneal
# [10] = test system: Mus musculus; assay: Anti tumor activity l when treated to mice with L1210 leukemia with 5 mg/kg dose of compound intraperitoneally was expressed as percent of treated to control (T/C %); format: functional; details: route intraperitoneal
# [11] = test system: Mus musculus; assay: The number of L1210 leukemia mice survived after 30 days with compound injected by a dose of 5 mg/kg intraperitoneally; 3/10; format: functional; details: route intraperitoneal
# [12] = test system: Mus musculus; assay: The number of L1210 Leukemia mice survived after 60 days with compound in olive oil injected by a dose of 20 mg/kg intraperitoneally; 7/15; format: functional; details: route intraperitoneal
# [13] = test system: Mus musculus; assay: The number of L1210 leukemia mice survived after 30 days with compound injected by a dose of 2.5 mg/kg intraperitoneally; 8/8; format: functional; details: route intraperitoneal
# [14] = test system: Mus musculus; assay: Median survival time of the non surviving mice; treated with 2.5 mg/kg of compound to mice with L1210 leukemia; 40-54; format: functional
# [15] = Mortality range of the mice with L1210 leukemia treated with 5 mg/kg of dose intraperitoneally with no of mice survived/no of mice treated; 0/10; format: functional; details: route intraperitoneal
# [16] = test system: Mus musculus; assay: The number of B16 Melanocarcinoma mice survived after 30 days with compound injected by a dose of 5 mg/kg intraperitoneally; 9/10; format: functional; details: route intraperitoneal
# [17] = test system: Mus musculus; assay: The number of B16 Melanocarcinoma mice survived after 60 days with compound injected by a dose of 30 mg/kg intraperitoneally; 9/10; format: functional; details: route intraperitoneal
# [18] = Mortality range of the mice with L1210 leukemia treated with 10 mg/kg of dose intraperitoneally with no of mice survived/no of mice treated; 0/8; format: functional; details: route intraperitoneal
# [19] = test system: Mus musculus; assay: Median survival time of the non surviving mice; treated with 20 mg/kg of compound in olive oil to mice with L1210 leukemia tumor; […]; format: functional
# [20] = test system: Mus musculus; assay: The number of L1210 leukemia mice survived after 60 days with compound injected by a dose of 2.5 mg/kg intraperitoneally; 0/10; format: functional; details: route intraperitoneal
# [21] = test system: Mus musculus; assay: Anti tumor activity l when treated to mice with B16 Melanocarcinoma with 5 mg/kg dose of compound intraperitoneally was expressed as percent of treated to control (T/C %); format: functional; details: route intraperitoneal
# [22] = test system: Mus musculus; assay: The number of L1210 leukemia mice survived after 30 days with compound in aqueous solution injected by a dose of 20 mg/kg intraperitoneally; 6/10; format: functional; details: route intraperitoneal
# [23] = test system: Mus musculus; assay: Anti tumor activity l when treated to mice with L1210 leukemia with 0.625 mg/kg dose of compound intraperitoneally was expressed as percent of treated to control (T/C %); format: functional; details: route intraperitoneal
# [24] = test system: Mus musculus; assay: The number of L1210 leukemia mice survived after 30 days with compound injected by a dose of 20 mg/kg intraperitoneally; 10/10; format: functional; details: route intraperitoneal
# [25] = Mortality range of the mice with L1210 leukemia treated with 0.625 mg/kg of dose intraperitoneally with no of mice survived/no of mice treated; 0/8; format: functional; details: route intraperitoneal
# [26] = test system: Mus musculus; assay: Anti tumor activity in olive oil when treated to mice with L1210 leukemia with 20 mg/kg dose of compound intraperitoneally was expressed as percent of treated to control (T/C %); format: functional; details: route intraperitoneal
# [27] = test system: Mus musculus; assay: The number of L1210 leukemia mice survived after 60 days with compound injected by a dose of 5 mg/kg intraperitoneally; 8/8; format: functional; details: route intraperitoneal
# [28] = Ratio of mice died to that of mice treated with 5 mg/kg of compound in aqueous solution intraperitoneally with L1210 leukemia; 0/10; format: functional; details: route intraperitoneal
# [29] = test system: Mus musculus; assay: The number of L1210 leukemia mice survived after 60 days with compound injected by a dose of 10 mg/kg intra peritoneally; 8/8; format: functional
# [30] = test system: Mus musculus; assay: The number of L1210 leukemia mice survived after 60 days with compound injected by a dose of 10 mg/kg intraperitoneally; 9/10; format: functional; details: route intraperitoneal
# [31] = Mortality range of the mice with L1210 leukemia treated with 5 mg/kg of dose intraperitoneally with no of mice survived/no of mice treated; 0/8; format: functional; details: route intraperitoneal
# [32] = Ratio of mice died to that of mice treated with 20 mg/kg of compound in olive oil intraperitoneally with B16 Melanocarcinoma; 0/20; format: functional; details: route intraperitoneal
# [33] = Mortality range of the mice with L1210 leukemia treated with 20 mg/kg of dose intraperitoneally with no of mice survived/no of mice treated; 0/10; format: functional; details: route intraperitoneal
# [34] = test system: Mus musculus; assay: The number of L1210 Leukemia mice survived after 30 days with compound in olive oil injected by a dose of 20 mg/kg intraperitoneally; 15/15; format: functional; details: route intraperitoneal
# [35] = test system: Mus musculus; assay: The number of L1210 leukemia mice survived after 30 days with compound injected by a dose of 0.625 mg/kg intraperitoneally; 0/8; format: functional; details: route intraperitoneal
# [36] = test system: Mus musculus; assay: Median survival time of the non surviving mice; treated with 10 mg/kg of compound to mice with B16 Melanocarcinoma; 34-47; format: functional
# [37] = test system: Mus musculus; assay: The number of L1210 leukemia mice survived after 30 days with compound injected by a dose of 5 mg/kg intraperitoneally; 8/8; format: functional; details: route intraperitoneal
# [38] = test system: Mus musculus; assay: The number of B16 Melanocarcinoma mice survived after 30 days with compound injected by a dose of 20 mg/kg intraperitoneally; 10/10; format: functional; details: route intraperitoneal
# [39] = Ratio of mice died to that of mice treated with 20 mg/kg of compound in olive oil intraperitoneally with L1210 leukemia tumor; 0/15; format: functional; details: route intraperitoneal
# [40] = Mortality range of the mice with B16 Melanocarcinoma treated with 20 mg/kg of dose intraperitoneally with no of mice survived/no of mice treated; 0/10; format: functional; details: route intraperitoneal
# [41] = Mortality range of the mice with B16 Melanocarcinoma treated with 5 mg/kg of dose intraperitoneally with no of mice survived/no of mice treated; 0/10; format: functional; details: route intraperitoneal
# [42] = test system: Mus musculus; assay: The number of B16 Melanocarcinoma mice survived after 60 days with compound injected by a dose of 5 mg/kg intraperitoneally; 1/10; format: functional; details: route intraperitoneal
# [43] = test system: Mus musculus; assay: Anti tumor activity in olive oil when treated to mice with B16 melanocarcinoma with 20 mg/kg dose of compound intraperitoneally was expressed as percent of treated to control (T/C %); format: functional; details: route intraperitoneal
smiles,measurement,setting,value
CO[C@@H]1C[C@@H](NC(=O)N(CCCl)N=O)[C@H](O)[C@@H](CO)O1 [ECOMUSTINE],LD50,[1],43.3 mg/kg
same,LD10,[2],31.2 mg/kg
same,LD90,[2],60 mg/kg
same,Survivals,[3],8
same,Survivals,[4],10
same,Survivals,[5],3
same,Survivals,[6],20
same,T/C,[7],233%
same,Median survival time,[8],33.33
same,Ratio,[9],0
same,T/C,[10],164%
same,Survivals,[11],3
same,Survivals,[12],7
same,Survivals,[13],8
same,Median survival time,[14],43.2
same,Ratio,[15],0
same,Survivals,[16],9
same,Survivals,[17],9
same,Ratio,[18],0
same,Median survival time,[19],57.5
same,Survivals,[20],0
same,T/C,[21],203%
same,Survival after 30 days,[22],6
same,T/C,[23],125%
same,Survivals,[24],10
same,Ratio,[25],0
same,T/C,[26],644%
same,Survivals,[27],8
same,Ratio,[28],0
same,Survivals,[29],8
same,Survivals,[30],9
same,Ratio,[31],0
same,Ratio,[32],0
same,Ratio,[33],0
same,Survivals,[34],15
same,Survivals,[35],0
same,Median survival time,[36],44
same,Survivals,[37],8
same,Survivals,[38],10
same,Ratio,[39],0
same,Ratio,[40],0
same,Ratio,[41],0
same,Survivals,[42],1
same,T/C,[43],239%
